SMILES strings stand for the structures. Like-named read-outs stand apart in the source and are kept apart here.

Here are results for eight molecules from US8816082B2, “Heterocyclyl-pyridinyl-based biphosphonic acid, pharmaceutically acceptable salt thereof, composition thereof and method of use thereof” (The Royal Institution for the Advancement of …, priority 2010, dated 2014).

In experiment [1] the target is T1, hFPPS (Homo sapiens, UniProt P14324).
T1 sequence (P14324 1-419): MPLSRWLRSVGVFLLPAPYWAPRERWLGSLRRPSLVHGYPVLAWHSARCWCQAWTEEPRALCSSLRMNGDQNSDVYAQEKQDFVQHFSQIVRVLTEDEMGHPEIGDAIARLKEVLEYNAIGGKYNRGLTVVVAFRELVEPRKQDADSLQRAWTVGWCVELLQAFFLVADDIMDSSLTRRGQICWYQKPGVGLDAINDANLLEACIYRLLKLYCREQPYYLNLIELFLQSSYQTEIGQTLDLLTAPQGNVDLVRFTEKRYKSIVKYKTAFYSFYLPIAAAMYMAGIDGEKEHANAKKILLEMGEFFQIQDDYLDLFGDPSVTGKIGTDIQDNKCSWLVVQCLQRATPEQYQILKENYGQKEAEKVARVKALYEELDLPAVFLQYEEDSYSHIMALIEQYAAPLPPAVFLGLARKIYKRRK
As to the kind of experiment: hFPPS IC50 determination under more optimised conditions (Table 4).

The target in experiment [2] is T2, human farnesyl pyrophosphate synthase (hFPPS) (Homo sapiens, UniProt P14324).
T2 sequence (P14324 1-419): T1 sequence (P14324 1-419)
As to the kind of experiment: In vitro enzymatic inhibition assay for hFPPS, initial screening conditions (partly purified enzyme, 5 min pre-incubation). In kind it is biochemical.

In experiment [3] the test system is breast cancer MCF-7 cells. As to the kind of experiment: Anti-proliferation assay (MTT), breast cancer MCF-7 cells. To be noted: Homo sapiens, MCF7, read-out: % inhibition of breast cancer MCF-7 cell proliferation at 50 μM inhibitor, 24 h, vs vehicle control, averages of four determinations. In kind it is cell-based. The protocol: (§1) In addition, select compounds were tested in anti-proliferation assays using multiple myeloma JJN3 cells and breast cancer MCF-7 cells. Cells were cultured with either an hFPPS inhibitor (i.e. representative Examples 1 to 42) at increasing concentrations (from 10 nM to 100 μM) or a vehicle control.

Experiment [4] concerns multiple myeloma JJN3 cells. As to the kind of experiment: Anti-proliferation assay (MTT), multiple myeloma JJN3 cells. In kind it is cell-based. To be noted: Homo sapiens. The protocol: as §1
In experiment [5] the target is T1, hFPPS. Description: hFPPS inhibition, high throughput mode at fixed concentration, more optimized assay (purer hFPPS, 10 min pre-incubation). To be noted: read-out: % Inhibition at 1 μM.
Experiment [6] relates to NCI-H460 cells (lung large cell carcinoma). As to the kind of experiment: Cell growth inhibition assay (MTT), NCI-H460 cells. In kind it is cell-based. As to conditions: Homo sapiens, 96 h, 4 days, preliminary data, read-out: EC50 (inhibition of cell proliferation).
[7] abbreviates: JJN-3, read-out: % inhibition of MM JJN3 cell proliferation at 50 μM inhibitor, 24 h, vs vehicle control, averages of four determinations.
[8] abbreviates: JJN-3, read-out: % inhibition of MM JJN3 cell proliferation at 50 μM inhibitor, 48 h, vs vehicle control, averages of four determinations.

The term IC50 denotes the concentration that gives 50% inhibition. `O=P(O)(O)C(F)(Cc1cncc(-c2ccc3[nH]ncc3c2)c1)P(=O)(O)O` [Compound 7]: the IC50 was found to be 150 nM at hFPPS [1] and 640 nM in experiment [2]. In addition, the inhibition at 50 µM in experiment [3] was 20%; in experiment [4] (setting [7]) it was 28%; in experiment [4] (setting [8]), 19%.
Consider `O=P(O)(O)C(Nc1cccc(-c2ccccc2)n1)P(=O)(O)O` [Compound 12], for which the inhibition at 1 µM at hFPPS [5] was 35%.
Still for that read-out and setting: the figure for `O=P(O)(O)C(Nc1cc(-c2ccc3[nH]ncc3c2)ccn1)P(=O)(O)O` [Compound 14] is 45%; for `O=P(O)(O)C(Nc1cc(-c2ccc3ccccc3c2)ccn1)P(=O)(O)O` [Compound 26] it is 65%.
Turning to `O=P(O)(O)C(Nc1ncccc1Br)P(=O)(O)O` [Compound 36], the IC50 at hFPPS [1] is 180 nM. Besides, the inhibition at 50 µM was found to be 25% in experiment [3], 15% in experiment [4] (setting [7]) and 26% in experiment [4] (setting [8]).
For the molecule `O=P(O)(O)C(Nc1cc(-c2ccc(Cl)cc2)ccn1)P(=O)(O)O` [Compound 40], the inhibition at 1 µM on hFPPS [5] came out at 90%.
Consider `O=P(O)(O)C(Nc1cc(-c2ccc(F)cc2)ccn1)P(=O)(O)O` [Compound 42], for which, at hFPPS [5], the inhibition at 1 µM was 95%.
In the case of `O=P(O)(O)C(O)(Cc1cccnc1)P(=O)(O)O` [Risedronate, reference compound], the values for the inhibition at 50 µM in experiment [3], in experiment [4] (setting [7]) and in experiment [4] (setting [8]) were 16%, 9% and 17%, respectively. Also, the EC50 in experiment [6] lay within 80000 to 100000 nM.
